Results: ChEMBL document CHEMBL1139392, “Synthesis and antibacterial activities of novel oxazolidinones having cyclic sulfonamide moieties” (2008)
≈ marks a conversion by molar mass, not a printed value.

How the values were obtained:
Format in all cases: functional
Enterococcus [1] = test: Antibacterial activity against vancomycin-resistant Enterococcus 1 after 18 to 20 hrs by agar dilution method
Enterococcus [2] = test: Antibacterial activity against vancomycin-resistant Enterococcus 2 after 18 to 20 hrs by agar dilution method
Enterococcus [3] = test: Antibacterial activity against vancomycin-resistant Enterococcus 3 after 18 to 20 hrs by agar dilution method
Enterococcus [4] = test: Antibacterial activity against vancomycin-resistant Enterococcus 4 after 18 to 20 hrs by agar dilution method
Enterococcus [5] = test: Antibacterial activity against vancomycin-resistant Enterococcus 5 after 18 to 20 hrs by agar dilution method
Enterococcus [6] = test: Antibacterial activity against vancomycin-resistant Enterococcus 6 after 18 to 20 hrs by agar dilution method
Staphylococcus aureus [7] = test: Antibacterial activity against Staphylococcus aureus C463 after 18 to 20 hrs by agar dilution method
Staphylococcus = test: Antibacterial activity against coagulase negative Staphylococcus after 18 to 20 hrs by agar dilution method
Enterococcus faecalis = test: Antibacterial activity against Enterococcus faecalis C474 after 18 to 20 hrs by agar dilution method
Enterococcus faecium [8] = test: Antibacterial activity against Enterococcus faecium C803 after 18 to 20 hrs by agar dilution method
Streptococcus pneumoniae = test: Antibacterial activity against Streptococcus pneumoniae C402 after 18 to 20 hrs by agar dilution method
Streptococcus pyogenes = test: Antibacterial activity against Streptococcus pyogenes ATCC 8736 after 18 to 20 hrs by agar dilution method
Streptococcus agalactiae = test: Antibacterial activity against Streptococcus agalactiae ATCC 2901 after 18 to 20 hrs by agar dilution method
Haemophilus influenzae = test: Antibacterial activity against Haemophilus influenzae after 18 to 20 hrs by agar dilution method
Staphylococcus aureus [9] = test: Antibacterial activity against methicillin-resistant Staphylococcus aureus 1 after 18 to 20 hrs by agar dilution method
Enterococcus faecium [10] = test: Antibacterial activity against vancomycin-resistant Enterococcus faecium 1 after 18 to 20 hrs by agar dilution method
Enterococcus faecium [11] = test: Antibacterial activity against vancomycin-resistant Enterococcus faecium 2 after 18 to 20 hrs by agar dilution method

| Structure (SMILES) | MIC (Enterococcus [1]) [µg/mL] | MIC (Enterococcus [2]) [µg/mL] | MIC (Enterococcus [3]) [µg/mL] | MIC (Enterococcus [4]) [µg/mL] | MIC (Enterococcus [5]) [µg/mL] | MIC (Enterococcus [6]) [µg/mL] | MIC (Staphylococcus aureus [7]) [µg/mL] | MIC (Staphylococcus) [µg/mL] | MIC (Enterococcus faecalis) [µg/mL] | MIC (Enterococcus faecium [8]) [µg/mL] | MIC (Streptococcus pneumoniae) [µg/mL] | MIC (Streptococcus pyogenes) [µg/mL] | MIC (Streptococcus agalactiae) [µg/mL] | MIC (Haemophilus influenzae) [µg/mL] | MIC (Staphylococcus aureus [9]) [µg/mL] | MIC (Enterococcus faecium [10]) [µg/mL] | MIC (Enterococcus faecium [11]) [µg/mL] |
| --- | --- | --- | --- | --- | --- | --- | --- | --- | --- | --- | --- | --- | --- | --- | --- | --- | --- |
| CC(=O)NC[C@H]1CN(c2ccc(N3CCN(C(=O)OC(C)(C)C)S3(=O)=O)c(F)c2)C(=O)O1 | 25 (≈ 52.9 µM) | 25 (≈ 52.9 µM) | 6.25 (≈ 13.2 µM) | 6.25 (≈ 13.2 µM) | 12.5 (≈ 26.5 µM) | 12.5 (≈ 26.5 µM) | 12.5 (≈ 26.5 µM) | 12.5 (≈ 26.5 µM) | 12.5 (≈ 26.5 µM) | 25 (≈ 52.9 µM) | 25 (≈ 52.9 µM) | 6.25 (≈ 13.2 µM) | 6.25 (≈ 13.2 µM) | 6.25 (≈ 13.2 µM) | 12.5 (≈ 26.5 µM) | 12.5 (≈ 26.5 µM) | 12.5 (≈ 26.5 µM) |
| CC(=O)NC[C@H]1CN(c2ccc(N3CCN(Cc4ccccc4)S3(=O)=O)c(F)c2)C(=O)O1 | 6.25 (≈ 13.5 µM) | 6.25 (≈ 13.5 µM) | 1.56 (≈ 3.37 µM) | 6.25 (≈ 13.5 µM) | 6.25 (≈ 13.5 µM) | 6.25 (≈ 13.5 µM) | 6.25 (≈ 13.5 µM) | 6.25 (≈ 13.5 µM) | 6.25 (≈ 13.5 µM) | 6.25 (≈ 13.5 µM) | 6.25 (≈ 13.5 µM) | 6.25 (≈ 13.5 µM) | 6.25 (≈ 13.5 µM) | 3.12 (≈ 6.75 µM) | 6.25 (≈ 13.5 µM) | 6.25 (≈ 13.5 µM) | 1.56 (≈ 3.37 µM) |
| CC(=O)NC[C@H]1CN(c2ccc(N3CCCNS3(=O)=O)c(F)c2)C(=O)O1 | 3.12 (≈ 8.07 µM) | 1.56 (≈ 4.04 µM) | 0.78 (≈ 2.02 µM) | 3.12 (≈ 8.07 µM) | 3.12 (≈ 8.07 µM) | 3.12 (≈ 8.07 µM) | 3.12 (≈ 8.07 µM) | 1.56 (≈ 4.04 µM) | 1.56 (≈ 4.04 µM) | 1.56 (≈ 4.04 µM) | 0.78 (≈ 2.02 µM) | 1.56 (≈ 4.04 µM) | 1.56 (≈ 4.04 µM) | 1.56 (≈ 4.04 µM) | 1.56 (≈ 4.04 µM) | 3.12 (≈ 8.07 µM) | 1.56 (≈ 4.04 µM) |
| CC(=O)NC[C@H]1CN(c2ccc(N3CCN(C)S3(=O)=O)c(F)c2)C(=O)O1 | 6.25 (≈ 16.2 µM) | 6.25 (≈ 16.2 µM) | 3.12 (≈ 8.07 µM) | 3.12 (≈ 8.07 µM) | 3.12 (≈ 8.07 µM) | 3.12 (≈ 8.07 µM) | 3.12 (≈ 8.07 µM) | 6.25 (≈ 16.2 µM) | 3.12 (≈ 8.07 µM) | 3.12 (≈ 8.07 µM) | 0.78 (≈ 2.02 µM) | 1.56 (≈ 4.04 µM) | 1.56 (≈ 4.04 µM) | 3.12 (≈ 8.07 µM) | 3.12 (≈ 8.07 µM) | 3.12 (≈ 8.07 µM) | 3.12 (≈ 8.07 µM) |
| CC(=O)NC[C@H]1CN(c2ccc(N3CC(C)NS3(=O)=O)c(F)c2)C(=O)O1 (some centres not stated) | 6.25 (≈ 16.2 µM) | 12.5 (≈ 32.3 µM) | 6.25 (≈ 16.2 µM) | 6.25 (≈ 16.2 µM) | 12.5 (≈ 32.3 µM) | 12.5 (≈ 32.3 µM) | 12.5 (≈ 32.3 µM) | 12.5 (≈ 32.3 µM) | 6.25 (≈ 16.2 µM) | 3.12 (≈ 8.07 µM) | 3.12 (≈ 8.07 µM) | 1.56 (≈ 4.04 µM) | 3.12 (≈ 8.07 µM) | 6.25 (≈ 16.2 µM) | 12.5 (≈ 32.3 µM) | 6.25 (≈ 16.2 µM) | 6.25 (≈ 16.2 µM) |
| CC(=O)NC[C@H]1CN(c2ccc(N3CCCN(C)S3(=O)=O)c(F)c2)C(=O)O1 | 1.56 (≈ 3.9 µM) | 1.56 (≈ 3.9 µM) | 1.56 (≈ 3.9 µM) | 1.56 (≈ 3.9 µM) | 1.56 (≈ 3.9 µM) | 1.56 (≈ 3.9 µM) | 1.56 (≈ 3.9 µM) | 1.56 (≈ 3.9 µM) | 1.56 (≈ 3.9 µM) | 1.56 (≈ 3.9 µM) | 0.78 (≈ 1.95 µM) | 0.78 (≈ 1.95 µM) | 1.56 (≈ 3.9 µM) | 1.56 (≈ 3.9 µM) | 1.56 (≈ 3.9 µM) | 0.78 (≈ 1.95 µM) | 1.56 (≈ 3.9 µM) |
| CC(=O)NC[C@H]1CN(c2ccc(N3CCOS3(=O)=O)c(F)c2)C(=O)O1 | 1.56 (≈ 4.18 µM) | 1.56 (≈ 4.18 µM) | 3.12 (≈ 8.36 µM) | 3.12 (≈ 8.36 µM) | 1.56 (≈ 4.18 µM) | 3.12 (≈ 8.36 µM) | 3.12 (≈ 8.36 µM) | 3.12 (≈ 8.36 µM) | 1.56 (≈ 4.18 µM) | 1.56 (≈ 4.18 µM) | 1.56 (≈ 4.18 µM) | 0.78 (≈ 2.09 µM) | 0.39 (≈ 1.04 µM) | 3.12 (≈ 8.36 µM) | 3.12 (≈ 8.36 µM) | 1.56 (≈ 4.18 µM) | 1.56 (≈ 4.18 µM) |
| CC(=O)NC[C@H]1CN(c2ccc(N3CCOCC3)c(F)c2)C(=O)O1 [LINEZOLID] | 0.78 (≈ 2.31 µM) | 1.56 (≈ 4.62 µM) | 1.56 (≈ 4.62 µM) | 1.56 (≈ 4.62 µM) | 1.56 (≈ 4.62 µM) | 1.56 (≈ 4.62 µM) | 1.56 (≈ 4.62 µM) | 1.56 (≈ 4.62 µM) | 1.56 (≈ 4.62 µM) | 1.56 (≈ 4.62 µM) | 0.39 (≈ 1.16 µM) | 0.39 (≈ 1.16 µM) | 1.56 (≈ 4.62 µM) | 1.56 (≈ 4.62 µM) | 3.12 (≈ 9.25 µM) | 1.56 (≈ 4.62 µM) | 0.78 (≈ 2.31 µM) |
| CC(=O)NC[C@H]1CN(c2ccc(N3CCNS3(=O)=O)c(F)c2)C(=O)O1 | 0.78 (≈ 2.09 µM) | 0.39 (≈ 1.05 µM) | 0.78 (≈ 2.09 µM) | 0.78 (≈ 2.09 µM) | 0.39 (≈ 1.05 µM) | 0.78 (≈ 2.09 µM) | 0.39 (≈ 1.05 µM) | 0.2 (≈ 0.537 µM) | 0.2 (≈ 0.537 µM) | 0.39 (≈ 1.05 µM) | 0.2 (≈ 0.537 µM) | 0.2 (≈ 0.537 µM) | 0.2 (≈ 0.537 µM) | 0.2 (≈ 0.537 µM) | 0.2 (≈ 0.537 µM) | 0.2 (≈ 0.537 µM) | 0.2 (≈ 0.537 µM) |
| CC(=O)NC[C@H]1CN(c2ccc(N3CC(C)(C)NS3(=O)=O)c(F)c2)C(=O)O1 | 25 (≈ 62.4 µM) | 12.5 (≈ 31.2 µM) | 6.25 (≈ 15.6 µM) | 12.5 (≈ 31.2 µM) | 12.5 (≈ 31.2 µM) | 12.5 (≈ 31.2 µM) | 12.5 (≈ 31.2 µM) | 12.5 (≈ 31.2 µM) | 12.5 (≈ 31.2 µM) | 25 (≈ 62.4 µM) | 12.5 (≈ 31.2 µM) | 6.25 (≈ 15.6 µM) | 12.5 (≈ 31.2 µM) | 25 (≈ 62.4 µM) | 12.5 (≈ 31.2 µM) | 12.5 (≈ 31.2 µM) | 12.5 (≈ 31.2 µM) |
| CCN1CCN(c2ccc(N3C[C@H](CNC(C)=O)OC3=O)cc2F)S1(=O)=O | 3.12 (≈ 7.79 µM) | 6.25 (≈ 15.6 µM) | 3.12 (≈ 7.79 µM) | 3.12 (≈ 7.79 µM) | 6.25 (≈ 15.6 µM) | 3.12 (≈ 7.79 µM) | 6.25 (≈ 15.6 µM) | 6.25 (≈ 15.6 µM) | 3.12 (≈ 7.79 µM) | 1.56 (≈ 3.9 µM) | 0.78 (≈ 1.95 µM) | 0.78 (≈ 1.95 µM) | 3.12 (≈ 7.79 µM) | 3.12 (≈ 7.79 µM) | 6.25 (≈ 15.6 µM) | 6.25 (≈ 15.6 µM) | 3.12 (≈ 7.79 µM) |
